The values that follow come from the pKa sets of Baltruschat and Czodrowski (2020).

For the setting “acidic group”, `Cc1ccc(S(=O)(=O)Nc2ccccc2)cc1` displayed a pKa of 8.46.

For the compound `Cc1c(Cl)c([N+](=O)[O-])cc2c1nnn2O`, the pKa (acidic group) was found to be 3.1.

For the setting “basic group”, `NCCCCCc1ccccn1` gave a pKa of 10.4.

In the case of `CSC(=S)N(C)CC(=O)O`, the pKa (acidic group) amounted to 2.98.

As to `CCN1[C@@H](C)[C@@H]1C` (some centres not stated), the pKa (basic group) worked out at 9.41.

Turning to `CC1(C)CC(O)[N+](C)(C)C1` (configuration not stated), the pKa (acidic group) came to 8.7.

In the case of `N#CO`, the pKa (acidic group) came out at 3.67.

Turning to `NC(=O)Cc1cccnc1`, the pKa (basic group) was 4.72.

As to `N/C(=N\O)c1ncnc2nc[nH]c12`, for the setting “acidic group”, the pKa was determined as 9.4.

For the compound `O=C(O)c1cccc(O)c1`, the pKa reads like this: (acidic group) 4.07; (basic group) -1.01.

For the setting “basic group”, `Nc1ccc(Cc2ccc([NH3+])cc2)cc1` displayed a pKa of 4.

On to `CCNc1cc[nH+]c([O-])n1`, for which, under “basic group”, the pKa turned out to be 4.58.

Turning to `CC1=C(CC(C)NCC(O)c2ccc([N+](=O)[O-])cc2)CCC1(C)C` (configuration not stated), the pKa (basic group) was found to be 8.36.

Compound `Fc1cccnc1` had a pKa (basic group) of 2.97.

`CC(CC(c1ccccc1)c1ccccc1)N1CCCCC1` (configuration not stated) showed a pKa (basic group) of 8.8.

In turn, `CC1CNCc2ccccc2OCCOc2ccccc2C[NH2+]1` (configuration not stated) gave a pKa (basic group) of 6.01.

In the case of `CCCN(CC(O)CC)CC(O)CC` (configuration not stated), the pKa (basic group) amounted to 9.

Turning to `CC(C)N1CCC(NN)CC1`, the pKa (basic group) was 9.65.

In turn, `CN(O)Cc1ccccc1` came in with a pKa (basic group) of 4.6.

`ONc1ncnc2nc[nH]c12` gave a pKa (acidic group) of 9.83 and a pKa (basic group) of 3.8.

Compound `Cc1cc(=O)oc2cccc(O)c12` came in with a pKa (acidic group) of 8.26.

As to `CC(C)([NH3+])C(=O)O`, for the setting “acidic group”, the pKa worked out at 2.39.

Where the note is “basic group”, `CCC(=O)C1(c2cccc(O)c2)CCN(C)CC1` yielded a pKa of 8.67.

`CCC(=O)OC(C)CN(C)C` (configuration not stated) showed a pKa (basic group) of 8.26.

Take `CCN(C)NC`: for the setting “basic group”, the pKa stood at 6.85.

For the compound `O=[N+]([O-])c1ccc(-c2nnn[nH]2)cc1`, under “acidic group”, the pKa was 3.08.

The compound `C#CCN` showed a pKa (basic group) of 8.19.

Consider `O=C(O)CSc1[nH]c2cc3ccccc3cc2[nH+]1`, for which the pKa (acidic group) was determined as 1.9.

With `Cc1cc(C)[nH+]c([S-])n1`, the pKa (basic group) was determined as 2.8.

Consider `CCOC(=O)C(CC)C(C)=O` (configuration not stated), for which, under “acidic group”, the pKa came out at 12.7.

Under “basic group”, `CCc1cnccc1N` yielded a pKa of 9.17.

`Cc1cc(O)nn1-c1ccccc1` showed a pKa (acidic group) of 12.1.

In turn, `CCCCNCC(=O)c1ccc(O)cc1` showed a pKa (basic group) of 8.55.

Take `CC[C@H]1[C@H](CC2=N/C(=C/c3[nH]c(C[C@@H]4NC(=O)[C@H](CC)[C@H]4C)c(C)c3CCC(=O)[O-])C(CCC(=O)[O-])=C2C)NC(=O)[C@@H]1C`: the pKa (basic group) is 7.6.

As for `[NH3+]CCCNCCC[NH3+]`, under “basic group”, the pKa is 8.08.

Take `C[C@]1(O)CCCC[C@@H]1N`: under “basic group”, the pKa is 9.49.

Regarding `CCC(=O)C(CC(C)N(C)C)(c1ccccc1)c1ccccc1` (configuration not stated), the pKa (basic group) stood at 8.62.

With `CCNc1ccnc([S-])n1`, the pKa (basic group) came to 11.1.

`CCC(O)CN(C)CC(O)CC` (configuration not stated) gave a pKa (basic group) of 9.

For the compound `COc1ccc(-c2nc3nnc(SC)nc3[nH]2)c(OC)c1`, the pKa (acidic group) was determined as 7.69.

`NS(=O)(=O)c1ccc(/N=C/c2ccccc2O)cc1` returned a pKa (acidic group) of 6.63.

For the setting “basic group”, `CCN(CC)c1nnc(-c2ccccc2)s1` yielded a pKa of 3.09.

Consider `CCN1CCCC1`, for which the pKa (basic group) was found to be 11.

Take `CN(C)CCCCCCNC(=O)/C=N/[O-]`: under “basic group”, the pKa stood at 10.4.

In turn, `CCC([NH3+])C(=O)O` (configuration not stated) gave a pKa (acidic group) of 2.29.

Regarding `CCCN(C)c1ccccc1`, the pKa (basic group) worked out at 5.67.

As to `Cc1cc([O-])nc2c1CCO2`, where the note is “basic group”, the pKa was found to be 8.44.

In turn, `CC(=O)CCN1CCOCC1` had a pKa (basic group) of 6.66.

`CCCC(N)C(=O)[O-]` (configuration not stated) showed a pKa (basic group) of 9.86.

Where the note is “basic group”, `CCCCCCCCCCCCCCCC(=O)N[C@@H](Cc1c[nH]cn1)C(=O)[O-]` displayed a pKa of 6.2.

As to `O=C(O)c1ccc(-c2nnn[nH]2)cc1`, the pKa (acidic group) was found to be 3.63.

The compound `CCNCC(=O)N(CC)CC` registered a pKa (basic group) of 8.78.

As to `Nc1ccccc1Cl`, the pKa (basic group) was determined as 2.64.

For the setting “basic group”, `Nc1ccc(S(=O)(=O)Nc2ccc[nH+]c2)cc1` showed a pKa of 1.59.

In the case of `c1ccc(C2CN3CCC2CC3)cc1` (configuration not stated), the pKa (basic group) came to 10.2.
